{"source": "patent US12303590B2", "about": "“Method of treating osteoarthritis” (ORTHOTROPHIX, INC., priority 2018, dated 2025)", "key": {"[1]": {"system": "subjects with bilateral patello-femoral knee osteoarthritis", "test": "Randomized double-blind placebo-controlled study of TPX-100 in patients with osteoarthritis of the knees (Example 1)", "format": "in vivo, human", "experimental": "A multicenter, randomized double-blind, placebo-controlled study was designed to investigate the safety, tolerability, pharmacokinetics, and efficacy of TPX-100 administered in four weekly doses in subjects with bilateral patello-femoral knee osteoarthritis. The study was conducted under an open IND (investigational new drug application) at CDER (Center for Drug Evaluation and Research) of the U.S. FDA (The United States Food and Drug Administration) in compliance with GCP (Good Clinical Practice) and ICH (International Conference on Harmonization of Technical Requirements for Registration of Pharmaceuticals for Human Use) guidelines. Eighteen (18) orthopedic, rheumatologic and family practice centers in the U.S. participated in the study.\nThe study was divided into Part A and Part B. The Part A was designed to evaluate safety of intra-articular (I.A.) administration of TPX-100 at different dosing levels (20, 50, 100, or 200 mg per injection in sequential cohorts) in the subjects with osteoarthritis of the knees and to select a dose for Part B. Part B was to evaluate safety and efficacy of the selected dose of TPX-100.\nSubjects in Part A were enrolled in sequential cohorts and randomized to receive 20, 50, 100 or 200 mg of TPX-100 in one knee (Index Knee) and identical placebo in the contralateral (Control) knee. Subjects, sites and sponsor and central MRI readers were blinded as to treatment assignment. A Safety Review Committee (SRC) evaluated safety in each dosing cohort. The SRC assessed safety and determined whether the next higher dosing regimen could be enrolled. All dosing cohorts in Part A were completed and analyzed with regard to safety prior to dose selection and initiation of Part B.\nPart A included four (4) intra-articular (I.A.) injections, one per week, in sequential dosing cohorts of 20, 50, 100 and 200 mg TPX-100 versus placebo. Six (6) subjects were enrolled in 20, 50, and 100 mg cohorts, respectively, and nine (9) subjects were enrolled in the 200 mg cohort.\nThe 200 mg dose was selected for Part B based on safety review and the approval of the SRC. […] Per the Statistical Analysis Plan, these subjects were combined with the nine subjects in the 200 mg cohort of Part A for the efficacy analysis. In total, data from 93 subjects was analyzed for drug efficacy, each of whom received 4 once-weekly injections of TPX-100, 200 mg/dose, in the Index knee and identical placebo in the contralateral knee, as randomly assigned. […]\nIf all clinical inclusion and exclusion criteria were met, MRIs of both knees were obtained and evaluated by a central reader to determine the ICRS grade (gICRS) of each knee as the final screening criterion. […]"}, "defects in human molar": {"system": "defects in human molar", "settings": "both Phase 2 studies (alveolar bone and dentin); cited from earlier work"}, "[2]": {"system": "standardized large cartilage defects", "settings": "in vivo; cited from earlier work"}, "[3]": {"settings": "human, in vivo; cited from earlier work"}, "[4]": {"system": "human osteoblastic mesenchymal stem cells", "settings": "U.S. Pat. Nos. 7,888,462 and 8,426,558; cited from earlier work"}}, "note": "Peptide text beside a SMILES is read from it."}
{"compound": "CC[C@H](C)[C@H](NC(=O)[C@H](CC(=O)O)NC(=O)[C@H](CC(N)=O)NC(=O)[C@H](CC(=O)O)NC(=O)CNC(=O)[C@H](CCCNC(=N)N)NC(=O)[C@H](CCC(=O)O)NC(=O)[C@H](CCC(N)=O)NC(=O)[C@H](CC(C)C)NC(=O)[C@H](CC(=O)O)NC(=O)[C@@H](N)[C@@H](C)O)C(=O)N[C@@H](CO)C(=O)N1CCC[C@H]1C(=O)N[C@@H](Cc1ccccc1)C(=O)N[C@@H](CO)C(=O)NCC(=O)N[C@@H](CC(=O)O)C(=O)NCC(=O)N[C@@H](CCC(N)=O)C(=O)N1CCC[C@H]1C(=O)N[C@@H](Cc1ccccc1)C(=O)N[C@@H](CCCCN)C(=O)N[C@@H](CC(=O)O)C(N)=O", "note": "[TPX-100] (H-TDLQERGDNDISPFSGDGQPFKD-NH2; N-terminus assumed)", "values": [{"measurement": "Dose-limiting toxicities", "setting": "[1]; Part A, 20, 50, 100 and 200 mg per injection", "value": "no dose-limiting toxicities"}, {"measurement": "Severe adverse events", "setting": "[1]; human, in vivo", "value": "no severe adverse events that were related to TPX-100 treatment"}, {"measurement": "Treatment-related adverse events", "setting": "[1]; human, in vivo", "value": "mild or moderate, transient"}, {"measurement": "Safety and tolerability", "setting": "[1]; intra-articular, Days 0, 7, 14, 21", "value": "safe and well tolerated"}, {"measurement": "Tolerability", "setting": "defects in human molar", "value": "well tolerated in both studies"}, {"measurement": "Safety and tolerability", "setting": "[2]", "value": "safe and well-tolerated"}]}
{"compound": "N#Cc1c(N(CC(=O)[O-])CC(=O)[O-])sc(C(=O)[O-])c1CC(=O)[O-].[Sr+2].[Sr+2]", "note": "[strontium ranelate]", "values": [{"measurement": "Adverse effect", "setting": "[3]", "value": "increase the risk of myocardial infarction"}]}
{"compound": "PDLLVRGDNDVPPFSGDGQHFMH [rat orthologue, TPX-100 orthologue (Rat/Mouse)]", "values": [{"measurement": "Tritium-thymidine incorporation", "setting": "[4]", "value": "promote tritium-thymidine incorporation"}]}
